ChEMBL document CHEMBL5528052, “Single Deletion Unmasks Hidden Anti-Gram-Negative Bacterial Activity of an Insect Defensin-Derived Peptide” (J Med Chem, 2024)
Activity calls are given as the source filed them. The calls are words filed in the database; no cut-off is given here. Bridge positions count the residues as written; N and C are the ends. Peptide text beside a SMILES is read from it.

What was measured:
Pseudomonas aeruginosa [1] = assay: Antimicrobial activity against Pseudomonas aeruginosa DH at 1 nmol relative to control; type: functional, organism-based
Geotrichum candidum = assay: Antifungal activity against Geotrichum candidum CCTCC AY 93038 at 1 nmol relative to control; type: functional, organism-based
Pseudomonas aeruginosa [2] = assay: Antimicrobial activity against Pseudomonas aeruginosa 11082603 at 1 nmol relative to control; type: functional, organism-based
Escherichia coli [3] = assay: Antimicrobial activity against Escherichia coli DH5alpha at 1 nmol relative to control; type: functional, organism-based
Komagataella pastoris = assay: Antifungal activity against Pichia pastoris X33 at 1 nmol relative to control; type: functional, organism-based
Aspergillus fumigatus = assay: Antifungal activity against Aspergillus fumigatus YJ-407 at 1 nmol relative to control; type: functional, organism-based
Aspergillus nidulans = assay: Antifungal activity against Aspergillus nidulans A28 at 1 nmol relative to control; type: functional, organism-based
Escherichia coli [4] = assay: Antimicrobial activity against Escherichia coli J23a at 1 nmol relative to control; type: functional, organism-based
Escherichia coli [5] = assay: Antimicrobial activity against Escherichia coli J16c at 1 nmol relative to control; type: functional, organism-based
Alcaligenes faecalis = assay: Antimicrobial activity against Alcaligenes faecalis CGMCC 1.1837 at 1 nmol relative to control; type: functional, organism-based
Aspergillus niger = assay: Antifungal activity against Aspergillus niger at 1 nmol relative to control; type: functional, organism-based
Staphylococcus [6] = assay: Antimicrobial activity against methicillin-resistant coagulase negative Staphylococcus P1369 assessed as lethal concentration; type: functional
Pseudomonas aeruginosa [7] = assay: Antimicrobial activity against Pseudomonas aeruginosa 11092304 at 1 nmol relative to control; type: functional, organism-based
Salmonella enterica [8] = assay: Antimicrobial activity against Salmonella enterica ATCC 14028 at 1 nmol relative to control; type: functional, organism-based
Pseudomonas aeruginosa [9] = assay: Antimicrobial activity against Pseudomonas aeruginosa 11092618 at 1 nmol relative to control; type: functional, organism-based
Staphylococcus warneri = assay: Antimicrobial activity against Staphylococcus warneri ATCC 1.2824 at 1 nmol relative to control; type: functional, organism-based
Pseudomonas aeruginosa [10] = assay: Antimicrobial activity against Pseudomonas aeruginosa 374 at 1 nmol relative to control; type: functional, organism-based
Escherichia coli [11] = assay: Antimicrobial activity against Escherichia coli J45b at 1 nmol relative to control; type: functional, organism-based
Micrococcus luteus [12] = assay: Antimicrobial activity against Micrococcus luteus CGMCC 1.0290 assessed as lethal concentration; type: functional
Streptococcus salivarius = assay: Antimicrobial activity against Streptococcus salivarius ATCC 1.2498 at 1 nmol relative to control; type: functional, organism-based
[13] = tested on: Staphylococcus epidermidis; assay: Antimicrobial activity against penicillin-resistant Staphylococcus epidermidis P1389 assessed as lethal concentration; type: functional
Streptococcus sanguinis [14] = assay: Antimicrobial activity against Streptococcus sanguinis ATCC 1.2497 assessed as lethal concentration; type: functional
Staphylococcus aureus [15] = assay: Antimicrobial activity against methicillin-resistant Staphylococcus aureus P1386 at 1 nmol relative to control; type: functional, organism-based
Priestia megaterium [16] = assay: Antimicrobial activity against Bacillus megaterium CGMCC 1.0459 assessed as lethal concentration; type: functional
Beauveria bassiana = assay: Antifungal activity against Beauveria bassiana 252 at 1 nmol relative to control; type: functional, organism-based
Pseudomonas aeruginosa [17] = assay: Antimicrobial activity against Pseudomonas aeruginosa O1 at 1 nmol relative to control; type: functional, organism-based
Staphylococcus aureus [18] = assay: Antimicrobial activity against methicillin-resistant Staphylococcus aureus P1374 assessed as lethal concentration; type: functional
Pseudomonas aeruginosa [19] = assay: Antimicrobial activity against Pseudomonas aeruginosa 11082616 at 1 nmol relative to control; type: functional, organism-based
[20] = tested on: Lysinibacillus fusiformis; assay: Antimicrobial activity against Lysinibacillus fusiformis assessed as lethal concentration; type: functional
Pseudomonas aeruginosa [21] = assay: Antimicrobial activity against Pseudomonas aeruginosa QT1 at 1 nmol relative to control; type: functional, organism-based
Pseudomonas aeruginosa [22] = assay: Antimicrobial activity against Pseudomonas aeruginosa at 1 nmol relative to control; type: functional, organism-based
[23] = tested on: Stenotrophomonas maltophilia; assay: Antimicrobial activity against Stenotrophomonas maltophilia CGMCC 1.1788 at 1 nmol relative to control; type: functional, organism-based
Ralstonia solanacearum = assay: Antimicrobial activity against Ralstonia solanacearum at 1 nmol relative to control; type: functional, organism-based
Pseudomonas aeruginosa [24] = assay: Antimicrobial activity against Pseudomonas aeruginosa FRD1 at 1 nmol relative to control; type: functional, organism-based
Escherichia coli [25] = assay: Antimicrobial activity against Escherichia coli G2b at 1 nmol relative to control; type: functional, organism-based
Aspergillus flavus = assay: Antifungal activity against Aspergillus flavus at 1 nmol relative to control; type: functional, organism-based
Staphylococcus aureus [26] = assay: Antimicrobial activity against Staphylococcus aureus J685 assessed as lethal concentration; type: functional
Staphylococcus aureus [27] = assay: Antimicrobial activity against Staphylococcus aureus J685 at 1 nmol relative to control; type: functional, organism-based
Escherichia coli [28] = assay: Antimicrobial activity against Escherichia coli J14b at 1 nmol relative to control; type: functional, organism-based
Bacillus subtilis [29] = assay: Antimicrobial activity against Bacillus subtilis CGMCC 1.2428 assessed as lethal concentration; type: functional
Curtobacterium luteum [30] = assay: Antimicrobial activity against Curtobacterium luteum assessed as lethal concentration; type: functional
[31] = Retention time of the compound by RP-HPLC analysis; type: physicochemical
Metarhizium robertsii = assay: Antifungal activity against Metarhizium robertsii at 1 nmol relative to control; type: functional, organism-based
Staphylococcus aureus [32] = assay: Antimicrobial activity against penicillin-resistant Staphylococcus aureus P1383 at 1 nmol relative to control; type: functional, organism-based
Salmonella enterica [33] = assay: Antimicrobial activity against Salmonella enterica ATCC 14028 at 0.25 to 1 nmol; type: functional, organism-based; settings: dose 0.25-1 nmol
Bacillus subtilis [34] = assay: Antimicrobial activity against Bacillus subtilis CGMCC 1.2428 at 1 nmol relative to control; type: functional, organism-based
[35] = tested on: Staphylococcus epidermidis; assay: Antimicrobial activity against penicillin-resistant Staphylococcus epidermidis P1389 at 1 nmol relative to control; type: functional, organism-based
[36] = tested on: Lysinibacillus fusiformis; assay: Antimicrobial activity against Lysinibacillus fusiformis at 1 nmol relative to control; type: functional, organism-based
Staphylococcus aureus [37] = assay: Antimicrobial activity against methicillin-resistant Staphylococcus aureus P1374 at 1 nmol relative to control; type: functional, organism-based
Streptococcus sanguinis [38] = assay: Antimicrobial activity against Streptococcus sanguinis ATCC 1.2497 at 1 nmol relative to control; type: functional, organism-based
Streptococcus mutans = assay: Antimicrobial activity against Streptococcus mutans ATCC 1.2499 at 1 nmol relative to control; type: functional, organism-based
Micrococcus luteus [39] = assay: Antimicrobial activity against Micrococcus luteus CGMCC 1.0290 at 1 nmol relative to control; type: functional, organism-based
Curtobacterium luteum [40] = assay: Antimicrobial activity against Curtobacterium luteum at 1 nmol relative to control; type: functional, organism-based
Priestia megaterium [41] = assay: Antimicrobial activity against Bacillus megaterium CGMCC 1.0459 at 1 nmol; type: functional, organism-based
Staphylococcus [42] = assay: Antimicrobial activity against methicillin-resistant coagulase negative Staphylococcus P1369 at 1 nmol relative to control; type: functional, organism-based
Erythrocyte = assay: Hemolytic activity in mouse erythrocytes assessed as hemolysis at 100 uM; type: toxicity, cell-based

CC[C@H](C)[C@H](NC(=O)[C@H](C)NC(=O)[C@H](CCCCN)NC(=O)[C@H](CC(N)=O)NC(=O)[C@H](CC(N)=O)NC(=O)[C@H](CS)NC(=O)[C@H](Cc1ccc(O)cc1)NC(=O)[C@H](CS)NC(=O)[C@@H](NC(=O)[C@H](C)N)[C@@H](C)O)C(=O)N[C@@H](CS)C(=O)N[C@H](C(=O)N[C@H](CS)C(=O)N[C@H](CCCNC(=N)N)C(=O)N[C@H](CCCNC(=N)N)C(N)=O)C(C)C
Activity (Pseudomonas aeruginosa [1]): inactive
Activity (Geotrichum candidum): inactive
Activity (Pseudomonas aeruginosa [2]): inactive
Activity (Escherichia coli [3]): inactive
Activity (Komagataella pastoris): inactive
Activity (Aspergillus fumigatus): inactive
Activity (Aspergillus nidulans): inactive
Activity (Escherichia coli [4]): inactive
Activity (Escherichia coli [5]): inactive
Activity (Alcaligenes faecalis): inactive
Activity (Aspergillus niger): inactive
LD (Staphylococcus [6]): 4.31 µM
Activity (Pseudomonas aeruginosa [7]): inactive
Activity (Salmonella enterica [8]): inactive
Activity (Pseudomonas aeruginosa [9]): inactive
Activity (Staphylococcus warneri): inactive
Activity (Pseudomonas aeruginosa [10]): inactive
Activity (Escherichia coli [11]): inactive
LD (Micrococcus luteus [12]): 1.96 µM
Activity (Streptococcus salivarius): inactive
LD [13]: 4.1 µM
LD (Streptococcus sanguinis [14]): 10.4 µM
Activity (Staphylococcus aureus [15]): inactive
LD (Priestia megaterium [16]): 2.44 µM
Activity (Beauveria bassiana): inactive
Activity (Pseudomonas aeruginosa [17]): inactive
LD (Staphylococcus aureus [18]): 14.29 µM
Activity (Pseudomonas aeruginosa [19]): inactive
LD [20]: 5.35 µM
Activity (Pseudomonas aeruginosa [21]): inactive
Activity (Pseudomonas aeruginosa [22]): inactive
Activity [23]: inactive
Activity (Ralstonia solanacearum): inactive
Activity (Pseudomonas aeruginosa [24]): inactive
Activity (Escherichia coli [25]): inactive
Activity (Aspergillus flavus): inactive
LD (Staphylococcus aureus [26]): 8.34 µM
Activity (Staphylococcus aureus [27]): inactive
Activity (Escherichia coli [28]): inactive
LD (Bacillus subtilis [29]): 3.54 µM
LD (Curtobacterium luteum [30]): 0.13 µM
Retention_time [31]: 15.2 min
Activity (Metarhizium robertsii): inactive

CC[C@H](C)[C@@H]1NC(=O)[C@H](CCCCN)NC(=O)[C@H](CC(N)=O)NC(=O)[C@H](CC(N)=O)NC(=O)[C@@H]2CSSC[C@H](NC1=O)C(=O)N[C@@H](C(C)C)C(=O)N[C@H](C(=O)N[C@@H](CCCNC(=N)N)C(=O)N[C@@H](CCCNC(=N)N)C(=O)O)CSSC[C@H](NC(=O)[C@@H](NC(=O)[C@H](C)N)[C@@H](C)O)C(=O)N[C@@H](Cc1ccc(O)cc1)C(=O)N2 (H-ATCYCNNKICVCRR-OH; disulfide 3-12, 5-10)
Activity (Pseudomonas aeruginosa [1]): inactive
Activity (Geotrichum candidum): inactive
Activity (Pseudomonas aeruginosa [2]): inactive
Activity (Escherichia coli [3]): inactive
Activity (Komagataella pastoris): inactive
Activity (Aspergillus fumigatus): inactive
Activity (Staphylococcus aureus [32]): inactive
Activity (Aspergillus nidulans): inactive
Activity (Salmonella enterica [33]): inactive
Activity (Escherichia coli [4]): inactive
Activity (Escherichia coli [5]): inactive
Activity (Alcaligenes faecalis): inactive
Activity (Aspergillus niger): inactive
Activity (Bacillus subtilis [34]): inactive
Activity [35]: inactive
LD (Staphylococcus [6]): 5.3 µM
Activity (Pseudomonas aeruginosa [7]): inactive
Activity (Salmonella enterica [8]): inactive
Activity (Pseudomonas aeruginosa [9]): inactive
Activity (Staphylococcus warneri): inactive
Activity (Pseudomonas aeruginosa [10]): inactive
Activity (Escherichia coli [11]): inactive
LD (Micrococcus luteus [12]): 3.52 µM
Activity (Streptococcus salivarius): inactive
Activity (Staphylococcus aureus [15]): inactive
LD (Priestia megaterium [16]): 2.58 µM
Activity (Beauveria bassiana): inactive
Activity (Pseudomonas aeruginosa [17]): inactive
Activity [36]: inactive
Activity (Pseudomonas aeruginosa [19]): inactive
Activity (Pseudomonas aeruginosa [21]): inactive
Activity (Pseudomonas aeruginosa [22]): inactive
Activity [23]: inactive
Activity (Staphylococcus aureus [37]): inactive
Activity (Ralstonia solanacearum): inactive
Activity (Pseudomonas aeruginosa [24]): inactive
Activity (Escherichia coli [25]): inactive
Activity (Aspergillus flavus): inactive
Activity (Staphylococcus aureus [27]): inactive
Activity (Escherichia coli [28]): inactive
Activity (Streptococcus sanguinis [38]): inactive
Activity (Streptococcus mutans): inactive
LD (Curtobacterium luteum [30]): 4.3 µM
Retention_time [31]: 16 min
Activity (Metarhizium robertsii): inactive

H-ATSYSNNKISVSRR-NH2
Activity (Pseudomonas aeruginosa [1]): inactive
Activity (Geotrichum candidum): inactive
Activity (Pseudomonas aeruginosa [2]): inactive
Activity (Escherichia coli [3]): inactive
Activity (Komagataella pastoris): inactive
Activity (Aspergillus fumigatus): inactive
Activity (Staphylococcus aureus [32]): inactive
Activity (Aspergillus nidulans): inactive
Activity (Escherichia coli [4]): inactive
Activity (Escherichia coli [5]): inactive
Activity (Alcaligenes faecalis): inactive
Activity (Aspergillus niger): inactive
Activity (Bacillus subtilis [34]): inactive
Activity [35]: inactive
Activity (Pseudomonas aeruginosa [7]): inactive
Activity (Salmonella enterica [8]): inactive
Activity (Pseudomonas aeruginosa [9]): inactive
Activity (Micrococcus luteus [39]): inactive
Activity (Staphylococcus warneri): inactive
Activity (Pseudomonas aeruginosa [10]): inactive
Activity (Escherichia coli [11]): inactive
Activity (Curtobacterium luteum [40]): inactive
Activity (Streptococcus salivarius): inactive
Activity (Staphylococcus aureus [15]): inactive
Activity (Beauveria bassiana): inactive
Activity (Pseudomonas aeruginosa [17]): inactive
Activity [36]: inactive
Activity (Pseudomonas aeruginosa [19]): inactive
Activity (Pseudomonas aeruginosa [21]): inactive
Activity (Pseudomonas aeruginosa [22]): inactive
Activity [23]: inactive
Activity (Staphylococcus aureus [37]): inactive
Activity (Ralstonia solanacearum): inactive
Activity (Priestia megaterium [41]): Active
Activity (Pseudomonas aeruginosa [24]): inactive
Activity (Escherichia coli [25]): inactive
Activity (Aspergillus flavus): inactive
Activity (Staphylococcus [42]): inactive
Activity (Staphylococcus aureus [27]): inactive
Activity (Escherichia coli [28]): inactive
Activity (Streptococcus sanguinis [38]): inactive
Activity (Streptococcus mutans): inactive
Activity (Metarhizium robertsii): inactive

H-FFGHLFKLATKIIPSLFQ-OH
Activity (Erythrocyte): Non-Toxic
